Here are results for 70 compounds from ChEMBL document CHEMBL3988442, “University of Dundee, Small-Polar-MMV Screening Library” (2021).

The target in test [1] is Sialic acid-binding Ig-like lectin 9 (Homo sapiens, UniProt Q9Y336). Put plainly: Hs-Siglec9 ALPHAscreen SOP 20170721. Background: In Alpha technology, singlet oxygen from a donor bead excites a nearby acceptor bead.
Test [2] can be described thus: microbe, parasite or virus in culture. The following applies: Mycobacterium tuberculosis, 96 h, read-out: pIC50 (converted).
Test [3] is described as follows: In vitro enzyme assay to detect hydrolysis of chlorophenol red-beta-D-[…] directly proportional to the number of Toxoplasma stably expressing beta-galactosidase. It is filed as functional, organism-based, Toxoplasma gondii. To be noted: for IC50: Toxoplasma gondii.
The target of a further test is ClpP1P2 (Mycobacterium tuberculosis (strain ATCC 25618 / H37Rv), UniProt P9WPC3+P9WPC5). Put plainly: in vitro assay to detect presence of AMC directly proportional to the activity of ClpP1P2. GHDDI collaboration. Format: functional.
Test [4] can be described thus: microbe, parasite or virus in culture. The following applies: Mycobacterium tuberculosis, 72 h, read-out: pIC50 (converted).
The test system of a further test is Plasmodium falciparum. In words: Calibr Malaria Delayed Death Assay SOP. It is filed as functional, organism-based. The following applies: for IC50: Plasmodium falciparum.

Where “and” joins values, the source holds several entries; their conditions need not be identical. Identical values can stand only once.

`Cn1ncc2c1C(COCC1CC1)CN(Cc1ccsc1)C2` (stereo not given): the IC50 in test [1] was greater than 30.2 µM; in test [2] it was greater than 50.1 µM.
For the compound `COc1c(C(=O)NCc2cnn(C)c2C)nnn1Cc1ccccc1`, the IC50 in test [1] is greater than 30.2 µM; in test [3], greater than 50.1 µM.
For `CCn1nc(C)c(NC(=O)c2nnn(Cc3ccccc3)c2OC)c1C`, the figures for the IC50 in test [1] and in test [3] were greater than 30.2 µM and greater than 50.1 µM, respectively.
`CCOCCCNC(=O)c1nnn(Cc2ccccc2)c1OC`: the IC50 in test [1] is greater than 30.2 µM; in test [3], greater than 50.1 µM.
The corresponding values for `COc1c(C(=O)NCC2CCCO2)nnn1Cc1ccccc1` (stereo not given) are greater than 30.2 µM and greater than 50.1 µM.
For `COc1c(C(=O)NCc2cccnc2)nnn1Cc1ccccc1`, the results for the IC50 in test [1] and in test [3] were greater than 30.2 µM and greater than 50.1 µM, respectively.
With `CC(C)N1CCCC(c2cc(C(F)(F)F)nc3nccn23)C1` (stereo not given), the IC50 in test [1] is greater than 30.2 µM; on ClpP1P2, greater than 100 µM.
For `FC(F)(F)c1cc(C2CCN(c3cnccn3)CC2)n2ccnc2n1`, the IC50 in test [1] was greater than 30.2 µM; at ClpP1P2, greater than 100 µM.
`FC(F)(F)c1cc(C2CCCN(c3cnccn3)C2)n2ccnc2n1` (stereo not given): the IC50 in test [1] was greater than 30.2 µM; at ClpP1P2 it was greater than 100 µM.
As to `O=C1Nc2ccccc2CN(C/C=C/c2ccccc2)C12CCNC2` (stereo not given), the IC50 is greater than 30.2 µM in test [1] and 15 µM in test [3]. The same compound displayed a negative-log IC50 (pIC50) in test [3] of 4.701.
For `O=C1Nc2ccccc2CN(CC2CCCC2)C12CCNC2` (stereo not given), the IC50 in test [1] was greater than 30.2 µM; in test [2], greater than 50.1 µM; in test [4] it was 22.7 µM.
With `COc1ccc(C(C)NCc2ccsc2)cc1Cn1cccn1` (stereo not given), the IC50 in test [1] is greater than 30.2 µM. In the test on Plasmodium falciparum, this compound gave a pIC50 of 6.257 and an IC50 of 0.477 µM.
In the case of `Cc1ccsc1C(=O)N1CCC(Nc2cccnc2)CC1`, the IC50 in test [1] was 14.5 µM and > 30.2 µM.
`Cc1cc(C(=O)N2CCC(Nc3cccnc3)CC2)c(C)s1` had an IC50 in test [1] greater than 30.2 µM.
On the same count and under the same terms, to `COc1cc(C(=O)N2CCC(Nc3cccnc3)CC2)ccc1C` belongs greater than 30.2 µM.
Take `COc1ccc(OC)c(C(=O)N2CCC(Nc3cccnc3)CC2)c1`: in test [1], the IC50 is greater than 30.2 µM.
`Cc1cc(C(=O)NC2CC(=O)N(C(C)C)C2=O)c(C)n1C(C)C` (stereo not given) showed an IC50 in test [1] greater than 30.2 µM.
With `CCc1cc(N2CCCC(c3noc(CC)n3)C2)ncn1` (stereo not given), the IC50 in test [1] is greater than 30.2 µM.
The same measure, in the same setting: to `CCc1nc(C2CCCN(c3ncccn3)C2)no1` (stereo not given) belongs greater than 30.2 µM.
With `CCc1nc(C2CCCN(c3ncc(Br)cn3)C2)no1` (stereo not given), the IC50 in test [1] is greater than 30.2 µM.
Same read-out and setting: the same measure for `Cc1nc(C2CCCN(c3ncc(Br)cn3)C2)no1` (stereo not given): greater than 30.2 µM.
Compound `CCc1nc(C2CCCN2c2ncc(Br)cn2)no1` (stereo not given) showed an IC50 in test [1] greater than 30.2 µM.
`CCc1nc(C2CCCN(c3nccc(C)n3)C2)no1` (stereo not given) showed an IC50 in test [1] greater than 30.2 µM.
On to `COC(=O)C(O)C1CCN(Cc2cccc(-n3cccn3)c2)CC1` (stereo not given), for which the IC50 in test [1] is greater than 30.2 µM.
Turning to `Cc1cc(S(=O)(=O)NCC(C)(O)CN(C)C)c(F)cc1F` (stereo not given), the IC50 in test [1] was greater than 30.2 µM.
The compound `CC(C)n1cnnc1C1CCCN(S(=O)(=O)CCCC#N)C1` (stereo not given) had an IC50 in test [1] greater than 30.2 µM.
Same read-out and setting: the same measure for `CC(C)n1cnnc1C1CCCN(S(=O)(=O)CCCF)C1` (stereo not given): greater than 30.2 µM; for `CC(C)CCS(=O)(=O)N1CCCC(c2nncn2C(C)C)C1` (stereo not given): greater than 30.2 µM.
Same read-out and setting: to `CC(C)n1cnnc1C1CCCN(S(=O)(=O)c2c[nH]cn2)C1` (stereo not given) belongs greater than 30.2 µM; to `CC(C)n1cnnc1C1CCCN(S(=O)(=O)CC2CCCC2)C1` (stereo not given), greater than 30.2 µM; to `CCN(C(=O)c1cc(C)oc1C)C1CC1`, greater than 30.2 µM.
For the compound `Cc1cc(S(=O)(=O)N(CCO)C2CC2)ccc1F`, the IC50 in test [1] is greater than 30.2 µM.
Still for that read-out and setting: the same measure for `O=C(NCCc1nncn1C1CC1)c1cnn(Cc2ccccc2)c1`: greater than 30.2 µM.
Regarding `O=C(NCCc1nncn1C1CC1)c1cc2ccccn2c1`, the IC50 in test [1] was greater than 30.2 µM; on ClpP1P2, greater than 100 µM.
The compound `Cc1cc(C(=O)N2CCCS2(=O)=O)c(C)o1` showed an IC50 in test [1] greater than 30.2 µM.
The same measure, in the same setting: the same measure for `Cc1occc1C(=O)N1CCCS1(=O)=O`: greater than 30.2 µM; for `O=C(NCC1(O)CCC1)c1cccc(-n2cccn2)c1`: greater than 30.2 µM.
Still for that read-out and setting: the same measure for `CCC(=O)NCC(=O)NCc1cc(Br)ccc1OC(F)F`: greater than 30.2 µM.
For `COc1cc(C)sc1C(=O)N1CCC(Nc2cccnc2)CC1`, the IC50 in test [1] was greater than 30.2 µM; in test [2] it was greater than 50.1 µM; in test [4] it was greater than 50.1 µM.
Compound `Cc1nccc(N2C[C@@H](CN3CCCC3)[C@@H](CO)C2)n1` had an IC50 in test [1] greater than 30.2 µM.
Same read-out and setting: to `COCc1cc(N2CCN(C3CCCCC3)CC2)n2nccc2n1` belongs greater than 30.2 µM.
On the same count and under the same terms, to `CCc1cc(N2CCC(N3CCSCC3)CC2)n2nccc2n1` belongs greater than 30.2 µM; to `CN1CCCN(C[C@@H]2CN(c3nc(C(N)=O)cs3)C[C@@H]2CO)CC1`, greater than 30.2 µM; to `CCc1cc(N2CCN3CCCCC3C2)n2nccc2n1` (stereo not given), greater than 30.2 µM.
On the same count and under the same terms, the same measure for `Cc1nc(CC(=O)NCc2csc(N3CCCC3)n2)cs1`: greater than 30.2 µM; for `NC(=O)c1csc(N2C[C@@H](CN3CCC(O)CC3)[C@@H](CO)C2)n1`: greater than 30.2 µM; for `FC(F)(F)CCc1ccnc(NCc2csc(N3CCOCC3)n2)n1`: greater than 30.2 µM.
Consider `Nc1nccc(N2C[C@@H](CN3CCCCC3)[C@@H](CO)C2)n1`, for which, in test [1], the IC50 was greater than 30.2 µM.
As for `Cc1cc(C(=O)N2CC[C@](C)(O)[C@H](C)C2)c(C)n1C`, the IC50 in test [1] was greater than 30.2 µM.
`CCOc1cccc(C2CC(=O)NCc3nc(N4CCCC4)sc32)c1` (stereo not given) had an IC50 in test [1] greater than 30.2 µM.
The same measure, in the same setting: to `CCC(C(=O)NCc1csc(N2CCOCC2)n1)n1cccn1` (stereo not given) belongs greater than 30.2 µM; to `CCn1ncnc1C1CC(=O)NCc2nc(N3CCOCC3)sc21` (stereo not given), greater than 30.2 µM; to `CNc1ncc(CN(C)C(=O)c2cccc(-n3cccn3)c2)cn1`, greater than 30.2 µM.
Consider `NC(=O)c1csc(N2C[C@@H](CN3CCCCC3)[C@@H](CO)C2)n1`, for which the IC50 in test [1] was greater than 30.2 µM.
The same measure, in the same setting: the same measure for `CCc1cc(N2CC(N3CCCCC3C)C2)n2nccc2n1` (stereo not given): greater than 30.2 µM; for `CCn1ncnc1C1CC(=O)NCc2nc(N3CCCC3)sc21` (stereo not given): greater than 30.2 µM.
Same read-out and setting: to `Cc1ncsc1CCC(=O)NCc1csc(N2CCCC2)n1` belongs greater than 30.2 µM; to `CC(C)n1cnnc1CCNCc1cn(CCC(N)=O)c2ccccc12`, greater than 30.2 µM.
Still for that read-out and setting: the same measure for `CC(=O)N[C@@H]1CN(c2nc(C(N)=O)cs2)C[C@H]1c1ccc(C)o1`: greater than 30.2 µM; for `NC(=O)c1csc(N2C[C@@H](CN3CCOCC3)[C@@H](CO)C2)n1`: greater than 30.2 µM; for `Cc1nn(C)c(C)c1CCC(=O)NCc1csc(N2CCCC2)n1`: greater than 30.2 µM.
Consider `CSc1nccc(N2C[C@@H](CN3CCCCC3)[C@@H](CO)C2)n1`, for which the IC50 in test [1] was greater than 30.2 µM.
On to `COc1cc(C)sc1C(=O)N1CC(c2cccnc2)C1`, for which, in test [1], the IC50 is greater than 30.2 µM.
Same read-out and setting: to `CCn1cnnc1C1CCN(C(=O)c2cc(C)n(CC)c2C)CC1` belongs greater than 30.2 µM; to `Cc1oc(C)c(C(=O)NCc2cccnc2)c1C`, greater than 30.2 µM; to `Cc1cnn(CC2CCCN2C(=O)c2cccc(-n3ccc(C)n3)c2)c1` (stereo not given), greater than 30.2 µM.
The compound `CC(C)n1cnnc1C1CCCN(C(=O)COCc2ccccc2)C1` (stereo not given) had an IC50 in test [1] greater than 30.2 µM.
In turn, `Cc1cc(S(=O)(=O)NC(C)(C)CN)c(F)cc1F` showed an IC50 in test [1] greater than 30.2 µM.
As for `Cc1cc(S(=O)(=O)NCC(C)(C)N)c(F)cc1F`, the IC50 in test [1] was greater than 30.2 µM.
Take `CN1CC2(CCN(Cc3ccoc3)CC2)COc2ccccc2S1(=O)=O.O=C(O)C(F)(F)F`: in test [1], the IC50 was greater than 30.2 µM. In the test on Plasmodium falciparum, this compound showed a negative logarithm of the IC50 (pIC50) of 5.92 and an IC50 of 0.906 µM.

In general, pIC50 refers to −log10 of the IC50, conventionally taken in molar units. A low value points to a high IC50.
